# Results reported in PubChem BioAssay AID1963848 (Molecular Pharmacology Branch, DTP, NCI, 2024).
# System: 379773-124-R-J2-PDC spheroid viability
# Assay: Anticancer human tumor 379773-124-R-J2-PDC patient-derived endometrial carcinoma cell line growth inhibition [POLQ]
# Details: spheroids with HUVEC and MSC; for IC50: curve of first compound; for viability, T/C: stronger effect = lower value
# Summary of the method: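 Growth inhibition in 3D: complex spheroids (tumor PDC, HUVEC, MSC) treated with POLQ inhibitor combinations; where Cmax unknown, highest tested concentration 10 microM, except SN-38 at 1 microM.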
# [1] = second compound 0.0316 µM, first compound 0.0316 µM
# [2] = second compound 0.0316 µM, first compound 0.1 µM
# [3] = second compound 0.0316 µM, first compound 0.316 µM
# [4] = second compound 0.0316 µM, first compound 1 µM
# [5] = second compound 0.0316 µM, first compound 3.16 µM
# [6] = second compound 0.0316 µM, first compound 10 µM
# [7] = second compound 0.1 µM, first compound 0.0316 µM
# [8] = second compound 0.1 µM, first compound 0.1 µM
# [9] = second compound 0.1 µM, first compound 0.316 µM
# [10] = second compound 0.1 µM, first compound 1 µM
# [11] = second compound 0.1 µM, first compound 3.16 µM
# [12] = second compound 0.1 µM, first compound 10 µM
# [13] = second compound 0.316 µM, first compound 0.0316 µM
# [14] = second compound 0.316 µM, first compound 0.1 µM
# [15] = second compound 0.316 µM, first compound 0.316 µM
# [16] = second compound 0.316 µM, first compound 1 µM
# [17] = second compound 0.316 µM, first compound 3.16 µM
# [18] = second compound 0.316 µM, first compound 10 µM
# [19] = second compound 1 µM, first compound 0.0316 µM
# [20] = second compound 1 µM, first compound 0.1 µM
# [21] = second compound 1 µM, first compound 0.316 µM
# [22] = second compound 1 µM, first compound 1 µM
# [23] = second compound 1 µM, first compound 3.16 µM
# [24] = second compound 1 µM, first compound 10 µM
# [25] = second compound 3.16 µM, first compound 0.0316 µM
# [26] = second compound 3.16 µM, first compound 0.1 µM
# [27] = second compound 3.16 µM, first compound 0.316 µM
# [28] = second compound 3.16 µM, first compound 1 µM
# [29] = second compound 3.16 µM, first compound 3.16 µM
# [30] = second compound 3.16 µM, first compound 10 µM
# [31] = second compound 10 µM, first compound 0.0316 µM
# [32] = second compound 10 µM, first compound 0.1 µM
# [33] = second compound 10 µM, first compound 0.316 µM
# [34] = second compound 10 µM, first compound 1 µM
# [35] = second compound 10 µM, first compound 3.16 µM
# [36] = second compound 10 µM, first compound 10 µM
# 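Further: spheroids exposed to drugs for seven days before readout.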
# 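Wherever viability, T/C is given: percent viability relative to DMSO vehicle control taken as 100%.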
compound,measurement,setting,value
C=CC(=O)N1CCN(c2nc(=O)n(-c3c(C)ccnc3C(C)C)c3nc(-c4c(O)cccc4F)c(F)cc23)C(C)C1 (stereo unspecified) + Nc1ccc(C#CCN(C(=O)Cc2ncc(C(F)(F)F)cc2C(F)(F)F)c2ccc(F)cc2)nn1,IC50,second compound 0.0316 µM,> 10 µM
same,IC50,second compound 0.1 µM,> 10 µM
same,IC50,second compound 0.316 µM,> 10 µM
same,IC50,second compound 1 µM,> 10 µM
same,IC50,second compound 3.16 µM,> 10 µM
same,IC50,second compound 10 µM,> 10 µM
same,"viability, T/C",[1],102%
same,"viability, T/C",[2],91.5%
same,"viability, T/C",[3],103%
same,"viability, T/C",[4],94.7%
same,"viability, T/C",[5],114%
same,"viability, T/C",[6],96.1%
same,"viability, T/C",[7],90%
same,"viability, T/C",[8],89.1%
same,"viability, T/C",[9],104%
same,"viability, T/C",[10],98.7%
same,"viability, T/C",[11],92%
same,"viability, T/C",[12],91.7%
same,"viability, T/C",[13],95.4%
same,"viability, T/C",[14],93.5%
same,"viability, T/C",[15],90.2%
same,"viability, T/C",[16],86.4%
same,"viability, T/C",[17],94.1%
same,"viability, T/C",[18],100%
same,"viability, T/C",[19],89.2%
same,"viability, T/C",[20],85.5%
same,"viability, T/C",[21],99.6%
same,"viability, T/C",[22],93%
same,"viability, T/C",[23],98.8%
same,"viability, T/C",[24],103%
same,"viability, T/C",[25],91.9%
same,"viability, T/C",[26],90.9%
same,"viability, T/C",[27],101%
same,"viability, T/C",[28],90.3%
same,"viability, T/C",[29],95%
same,"viability, T/C",[30],93.3%
same,"viability, T/C",[31],88.3%
same,"viability, T/C",[32],91.4%
same,"viability, T/C",[33],93.3%
same,"viability, T/C",[34],91.4%
same,"viability, T/C",[35],94.9%
same,"viability, T/C",[36],98.2%
CC(C)n1c(=O)n(C)c2cnc3cc(F)c(-c4ccc(OCCCN5CCCCC5)nc4)cc3c21 + Nc1ccc(C#CCN(C(=O)Cc2ncc(C(F)(F)F)cc2C(F)(F)F)c2ccc(F)cc2)nn1,IC50,second compound 0.0316 µM,> 10 µM
same,IC50,second compound 0.1 µM,> 10 µM
same,IC50,second compound 0.316 µM,> 10 µM
same,IC50,second compound 1 µM,> 10 µM
same,IC50,second compound 3.16 µM,> 10 µM
same,IC50,second compound 10 µM,> 10 µM
same,"viability, T/C",[1],95.4%
same,"viability, T/C",[2],96.4%
same,"viability, T/C",[3],83.3%
same,"viability, T/C",[4],94.3%
same,"viability, T/C",[5],81.7%
same,"viability, T/C",[6],72.6%
same,"viability, T/C",[7],97.9%
same,"viability, T/C",[8],92.6%
same,"viability, T/C",[9],85.3%
same,"viability, T/C",[10],87.6%
same,"viability, T/C",[11],78.9%
same,"viability, T/C",[12],73.6%
same,"viability, T/C",[13],90.4%
same,"viability, T/C",[14],96.7%
same,"viability, T/C",[15],84.7%
same,"viability, T/C",[16],88.8%
same,"viability, T/C",[17],81.4%
same,"viability, T/C",[18],74.9%
same,"viability, T/C",[19],98.5%
same,"viability, T/C",[20],98.2%
same,"viability, T/C",[21],87%
same,"viability, T/C",[22],94.5%
same,"viability, T/C",[23],84.7%
same,"viability, T/C",[24],77.8%
same,"viability, T/C",[25],92.6%
same,"viability, T/C",[26],87.5%
same,"viability, T/C",[27],82.1%
same,"viability, T/C",[28],80.7%
same,"viability, T/C",[29],85.9%
same,"viability, T/C",[30],85.3%
same,"viability, T/C",[31],85.5%
same,"viability, T/C",[32],89.7%
same,"viability, T/C",[33],77%
same,"viability, T/C",[34],77.8%
same,"viability, T/C",[35],75.2%
same,"viability, T/C",[36],73.8%
CC1COCCN1c1cc(-c2ccnn2C)c2ccnc(-c3ccn[nH]3)c2n1 (stereo unspecified) + Nc1ccc(C#CCN(C(=O)Cc2ncc(C(F)(F)F)cc2C(F)(F)F)c2ccc(F)cc2)nn1,IC50,second compound 0.0316 µM,0.12 µM
same,IC50,second compound 0.1 µM,0.133 µM
same,IC50,second compound 0.316 µM,0.114 µM
same,IC50,second compound 1 µM,0.13 µM
same,IC50,second compound 3.16 µM,0.135 µM
same,IC50,second compound 10 µM,0.142 µM
same,"viability, T/C",[1],89.5%
same,"viability, T/C",[2],56.8%
same,"viability, T/C",[3],13.7%
same,"viability, T/C",[4],11.4%
same,"viability, T/C",[5],12%
same,"viability, T/C",[6],6.24%
same,"viability, T/C",[7],89.5%
same,"viability, T/C",[8],61.2%
same,"viability, T/C",[9],15.6%
same,"viability, T/C",[10],11.1%
same,"viability, T/C",[11],12.2%
same,"viability, T/C",[12],8.99%
same,"viability, T/C",[13],90.6%
same,"viability, T/C",[14],54.3%
same,"viability, T/C",[15],16.2%
same,"viability, T/C",[16],11.5%
same,"viability, T/C",[17],12.7%
same,"viability, T/C",[18],7.88%
same,"viability, T/C",[19],93.2%
same,"viability, T/C",[20],60.6%
same,"viability, T/C",[21],13.9%
same,"viability, T/C",[22],9.22%
same,"viability, T/C",[23],12.6%
same,"viability, T/C",[24],9.58%
same,"viability, T/C",[25],91.4%
same,"viability, T/C",[26],62.9%
same,"viability, T/C",[27],13%
same,"viability, T/C",[28],10.6%
same,"viability, T/C",[29],10.9%
same,"viability, T/C",[30],7.43%
same,"viability, T/C",[31],80.1%
same,"viability, T/C",[32],64.2%
same,"viability, T/C",[33],17.7%
same,"viability, T/C",[34],8.24%
same,"viability, T/C",[35],12.3%
same,"viability, T/C",[36],8.65%
